In US7091198B1, “2,5-disubstituted pyrimidine derivatives” (Bayer HealthCare AG, priority 2002, dated 2006) one finds minimal effective concentration data, which are given here for eight molecules.

The assay deals with cGMP in primary cortical neurons. Description: Increase of cGMP in primary cortical neurons. It is filed as cell-based. As to conditions: Primary cortical neuron, 20 min; rat embryonic primary cortical neurons; 20 min incubation at 37° C. with IBMX; triplicate determination; more than 2-fold increase compared with the control; read-out: concentration leading to a statistically significant increase in cGMP. The procedure: Increase of cGMP in Primary Cortical Neurons
Rat embryos (embryonic day 17–19) are decapitated, and the cerebrum is removed and incubated with 5 ml of papain solution and 250 μl of DNAse (papain kit from Cell-System) at 37° C. for 30 min, homogenized using a Pasteur pipette and centrifuged at 1200 rpm for 5 min. The supernatant is removed, the cell pellet resuspended (in 2.7 ml of EBSS [Earl's balanced salt solution], 300 μl of ovomucoid/albumin (conc.) solution, 150 μl of DNAse; papain kit from Cell-System), layered over 5 ml of ovomucoid/albumin solution and centrifuged at 700 rpm for 6 min. The supernatant is removed, the cells are resuspended in cultivation medium (Gibco neurobasal medium, B27 Supplement 50×1 ml/100 ml, 2 mM L-glutamine), counted (approx. 150 000 cells/well) and plated out on poly-D-lysine-coated 96-well plates (Costar) with 200 μl/well. After 6–7 days at 37° C. (5% CO2), the neurons are freed of culture medium and washed once with assay buffer (154 mM NaCl, 5.6 mM KCl, 2.3 mM CaCl2.2H2O, 1 mM MgCl2, 5.6 mM glucose, 8.6 mM HEPES (4-(2-hydroxyethyl)piperazine-1-ethanesulfonic acid), pH=7.4). 100 μl/well test substance are dissolved in assay buffer and then 100 μl/well IBMX (3-isobutyl-1-methylxanthine; dissolved in 50 mM ethanol, diluted with assay buffer to a final concentration of 100 μM) are added. After incubation at 37° C. for 20 min, the assay buffer is replaced by 200 μl/well of lysis buffer (cGMP EIA RPN 226 from Amersham Pharmacia Biotech), and the cGMP content of the lystates is determined using an EIA assay kit.
The concentrations indicated in Table 1 lead to a statistically significant increase in cGMP (triplicate determination; more than 2-fold increase compared with the control)
Regarding `CO[C@H]1CN(c2cnc(-c3nn(Cc4ccccc4F)c4ncccc34)nc2)C[C@@H]1OC` [Example 6], the minimal effective concentration was determined as 0.27 µM.
Regarding `Fc1ccccc1Cn1nc(-c2ncc(N3CC4CNCC(C3)O4)cn2)c2cccnc21` [Example 10], the minimal effective concentration came to 1.2 µM.
With `O=C1CCCCC1c1cnc(-c2nn(Cc3ccccc3F)c3ncccc23)nc1` (centres unmarked) [Example 13, 2-{2-[1-(2-Fluorobenzyl)-1H-pyrazol[3,4-b]pyridin-3-yl]-5-pyrimidinyl}-cyclohexanone], the minimal effective concentration stood at 0.27 µM.
As for `Fc1ccccc1Cn1nc(-c2ncc(N3CC4CCC(C3)O4)cn2)c2cccnc21` [Example 19, 1-(2-Fluorobenzyl)-3-[5-(8-oxa-3-azabicyclo[3.2.1]oct-3-yl)-2-pyrimidinyl]-1H-pyrazolo[3,4-b]pyridine], the minimal effective concentration was found to be 0.27 µM.
As for `CO[C@H]1CCN(c2cnc(-c3nn(Cc4ccccc4F)c4ncccc34)nc2)C1` [Example 20, 1-(2-Fluorobenzyl)-3-{5-[(3S)-3-methoxy-1-pyrrolidinyl]-2-pyrimidinyl}-1 H-pyrazolo[3,4-b]pyridine], the minimal effective concentration is 0.27 µM.
On to `COc1ccccc1-c1cnc(-c2nn(Cc3ccccc3F)c3ncccc23)nc1` [Example 27], for which the minimal effective concentration came to 0.9 µM.
Under `Fc1ccccc1Cn1nc(-c2ncc(-c3cn[nH]c3C3CC3)cn2)c2cccnc21` [Example 36, 3-[5-(5-Cyclopropyl-1H-pyrazol-4-yl)-2-pyrimidinyl]-1-(2-fluorobenzyl)-1 H-pyrazolo[3,4-b]pyridine] stands 0.27 µM.
With `O=C1CCN(c2cnc(-c3nn(Cc4ccccc4F)c4ncccc34)nc2)C1` [Example 38, 1-{2-[1-(2-Fluorobenzyl)-1H-pyrazol[3,4-b]pyridin-3-yl]-5-pyrimidinyl}-3-pyrrolidinone] the figure was 0.27 µM.
